In patent publication US20080261891A1, “COMPOSITIONS AND METHODS FOR USING SYRINGOPEPTIN 25A AND RHAMNOLIPIDS” (Utah State University, priority 2007, published 2008):

Experiments:
M. tuberculosis H37Rv = test: MIC by microplate Alamar Blue assay (MABA); type: cell-based, Mycobacterium tuberculosis; conditions: 7H12 media
[1] = tested on: human embryonic kidney cells (HEK 293); test: Toxicity to mammalian cells, percent cell death (Nucleocounter); conditions: positive control
Procedure: (§1) Toxicity of the two compounds to mammalian cells was assayed in cell culture using mouse enteroendocrine cells (STC-1), human embryonic kidney cells (HEK 293; ATCC CRL-1573), and human lung fibroblasts (LL47; ATCC CCL-135). […] The human embryonic kidney cells and human lung fibroblasts were grown as per the American Type Culture Collection's recommendation, while the mouse enteroendocrine cells were grown as described by Vincent et al. (2001, Proc. Natl. Acad. Sci., 99:2392-2397). Media and sera were purchased from HyClone Laboratories (Logan, Utah). All cells were grown in 10% fetal bovine serum (FBS).
(§2) The number in the parenthesis represents the concentration of each compound in μg/mL. The percent cell death was benchmarked to 100% lysis with the positive control. The number of total cells and dead cells were counted after 6, 24, and 48 h using a Nucleocounter Automated cell counting system (New Brunswick; Edison, N.J.). Briefly, cells (STC, 200,000 cells/well; HEK 293, 200,000 cells/well; and LL47, 100,000 cells/well) were incubated in the appropriate medium for 24 h prior to addition of fresh media containing the antimicrobial compounds. After addition of the antimicrobial compound, the cell cultures were incubated at 37° C. with 5% CO2 for 6, 24, and 48 h. Cells were harvested by trypsinization using 0.25% trypsin-EDTA for 2 min. The trypsin was neutralized by addition of 200 μL of serum containing fresh medium. The cells were then harvested and transferred to 1.5 mL tubes, centrifuged (3-5 min at <100×g), and resuspended in 200 μL of fresh medium. For the total cell count, 100 μL of the suspension was added to lysis buffer (Reagent A100 in the starting kit (Cat No. M1293-0020, New Brunswick Scientific) for 30 s, which was stabilized using 100 μL of Reagent B. A positive control of completely lysed cells was used along with a negative control using sterile PBS (pH 7.4). For dead cell counts, 100 μL of cell lysate was counted without the use of lysis buffer or stabilizing buffer. All cell counts were obtained using the Nucleocounter automated cell counting system. Data were reported as the percent of cell death. The toxicity testing was done in replicate using three wells per test.

[2] = tested on: human lung fibroblasts (LL47); test: as above; conditions: positive control
Procedure: as §1, §2

[3] = tested on: mouse enteroendocrine cells (STC-1); test: as above; conditions: positive control
Procedure: as §1, §2

Compound	expected MIC range (quality control) (M. tuberculosis H37Rv)	lysis [1]	lysis [2]	lysis [3]
NNC(=O)c1ccncc1 [Isoniazid]	0.025 to 0.1 µg/mL	–	–	–
triton [reference compound]	–	100%	100%	100%
